Reference: ChEMBL document CHEMBL4507307 (2021)

How the values were obtained:
[1] = molecular target: 5-hydroxytryptamine receptor 1A (Homo sapiens, UniProt P08908); assay: GPCRScan assay: inhibition of 5-HT1A; set-up: radioligand conc. used [nm] 0.5 – 1.0, parental cells stable CHO
[2] = molecular target: 5-hydroxytryptamine receptor 1B (Homo sapiens, UniProt P28222); assay: GPCRScan assay: inhibition of 5-HT1B; set-up: radioligand conc. used [nm] 0.6 – 1.5, parental cells stable HEK
[3] = molecular target: 5-hydroxytryptamine receptor 1E (Homo sapiens, UniProt P28566); assay: GPCRScan assay: inhibition of 5-HT1E; set-up: radioligand conc. used [nm] 2.1 – 5.0, parental cells stable HEK
[4] = molecular target: 5-hydroxytryptamine receptor 2C (Homo sapiens, UniProt P28335); assay: GPCRScan assay: inhibition of 5-HT2C; set-up: radioligand conc. used [nm] 1.0 – 2.5, parental cells HEK T
Chain of 5-hydroxytryptamine receptor 2C (P28335 whole entry): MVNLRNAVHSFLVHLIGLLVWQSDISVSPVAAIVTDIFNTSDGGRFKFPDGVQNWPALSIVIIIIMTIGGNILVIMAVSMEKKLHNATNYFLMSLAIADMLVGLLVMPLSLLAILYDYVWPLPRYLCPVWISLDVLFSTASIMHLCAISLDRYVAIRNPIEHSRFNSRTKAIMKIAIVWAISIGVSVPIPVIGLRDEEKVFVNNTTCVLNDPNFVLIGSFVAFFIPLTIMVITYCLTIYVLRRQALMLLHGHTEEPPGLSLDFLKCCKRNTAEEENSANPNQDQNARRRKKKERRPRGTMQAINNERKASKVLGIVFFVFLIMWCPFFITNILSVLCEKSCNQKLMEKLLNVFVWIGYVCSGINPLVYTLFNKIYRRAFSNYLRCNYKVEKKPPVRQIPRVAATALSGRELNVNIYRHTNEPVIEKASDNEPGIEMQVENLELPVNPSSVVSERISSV

[5] = molecular target: 5-hydroxytryptamine receptor 5A (Homo sapiens, UniProt P47898); assay: GPCRScan assay: inhibition of 5-HT5A; set-up: radioligand conc. used [nm] 2.0 - 3.3, parental cells Flp-In CHO
[6] = molecular target: Kappa-type opioid receptor (Homo sapiens, UniProt P41145); assay: GPCRScan assay: inhibition of KOR; set-up: radioligand conc. used [nm] 0.6 – 1.2, parental cells stable HEK
[7] = molecular target: Alpha-1A adrenergic receptor (Homo sapiens, UniProt P35348); assay: GPCRScan assay: inhibition of Alpha1A; set-up: radioligand conc. used [nm] 0.2 - 1.0, parental cells stable HEK
[8] = molecular target: Alpha-2A adrenergic receptor (Homo sapiens, UniProt P08913); assay: GPCRScan assay: inhibition of Alpha2A; set-up: radioligand conc. used [nm] 1.0 – 3.0, parental cells stable MDCK
[9] = molecular target: Muscarinic acetylcholine receptor M1 (Homo sapiens, UniProt P11229); assay: GPCRScan assay: inhibition of M1; set-up: radioligand conc. used [nm] 0.3 – 1.2, parental cells stable CHO
[10] = molecular target: T1, Beta-3 adrenergic receptor (Homo sapiens, UniProt P13945); assay: GPCRScan assay: inhibition of Beta3; set-up: radioligand conc. used [nm] 0.2 – 0.5, parental cells HEK Flp-In
[11] = molecular target: Alpha-1D adrenergic receptor (Homo sapiens, UniProt P25100); assay: GPCRScan assay: inhibition of Alpha1D; set-up: radioligand conc. used [nm] 0.3 – 1.0, parental cells stable
[12] = molecular target: T2, Dual specificity protein kinase CLK2 (Homo sapiens, UniProt P49760); assay: NanoBRET (SGC Frankfurt) (CLK2)
[13] = molecular target: 5-hydroxytryptamine receptor 1A (Homo sapiens) (UniProt P08908); details: Compound concentration 10.0 uM
[14] = molecular target: T1, Beta-3 adrenergic receptor; details: Compound concentration 10.0 uM
[15] = molecular target: T2, Dual specificity protein kinase CLK2; assay: CLK2 Kinase activity screen
[16] = molecular target: Dual specificity tyrosine-phosphorylation-regulated kinase 1A (Homo sapiens, UniProt Q13627); assay: DYRK1A Kinase activity screen
[17] = molecular target: Dual specificity tyrosine-phosphorylation-regulated kinase 1B (Homo sapiens, UniProt Q9Y463); assay: DYRK1B Kinase activity screen
[18] = molecular target: Dual specificity tyrosine-phosphorylation-regulated kinase 4 (Homo sapiens) (UniProt Q9NR20); assay: DYRK4 Kinase activity screen
[19] = molecular target: SRSF protein kinase 2 (Homo sapiens) (UniProt P78362); assay: SRPK2 Kinase activity screen
[20] = molecular target: RAC-alpha serine/threonine-protein kinase (Homo sapiens) (UniProt P31749); assay: AKT1 (PKB alpha) Kinase activity screen; details: Compound concentration 0.1 uM
[21] = molecular target: AMP-activated protein kinase (AMPK) alpha-1/beta-1/gamma-1 (Homo sapiens) (UniProt P54619+Q9Y478+Q13131); assay: AMPK A1/B1/G1 Kinase activity screen; type: protein-complex assay
[22] = molecular target: Aurora kinase B (Homo sapiens) (UniProt Q96GD4); assay: AURKB (Aurora B) Kinase activity screen
Chain of Aurora kinase B (Homo sapiens) (Q96GD4 whole entry): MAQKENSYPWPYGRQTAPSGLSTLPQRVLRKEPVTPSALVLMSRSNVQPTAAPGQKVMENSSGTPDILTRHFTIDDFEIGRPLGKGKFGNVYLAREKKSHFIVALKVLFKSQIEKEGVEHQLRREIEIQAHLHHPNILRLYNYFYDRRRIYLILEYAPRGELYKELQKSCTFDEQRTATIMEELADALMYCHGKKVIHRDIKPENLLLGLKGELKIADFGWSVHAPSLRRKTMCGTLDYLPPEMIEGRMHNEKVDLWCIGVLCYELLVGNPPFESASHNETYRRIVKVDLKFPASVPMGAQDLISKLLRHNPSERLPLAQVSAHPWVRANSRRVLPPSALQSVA

[23] = molecular target: Serine/threonine-protein kinase Chk1 (Homo sapiens) (UniProt O14757); assay: CHEK1 (CHK1) Kinase activity screen
[24] = molecular target: Serine/threonine-protein kinase Chk2 (Homo sapiens) (UniProt O96017); assay: CHEK2 (CHK2) Kinase activity screen
[25] = molecular target: Ephrin type-A receptor 5 (Homo sapiens) (UniProt P54756); assay: EPHA5 Kinase activity screen
Chain of Ephrin type-A receptor 5 (Homo sapiens) (P54756 whole entry): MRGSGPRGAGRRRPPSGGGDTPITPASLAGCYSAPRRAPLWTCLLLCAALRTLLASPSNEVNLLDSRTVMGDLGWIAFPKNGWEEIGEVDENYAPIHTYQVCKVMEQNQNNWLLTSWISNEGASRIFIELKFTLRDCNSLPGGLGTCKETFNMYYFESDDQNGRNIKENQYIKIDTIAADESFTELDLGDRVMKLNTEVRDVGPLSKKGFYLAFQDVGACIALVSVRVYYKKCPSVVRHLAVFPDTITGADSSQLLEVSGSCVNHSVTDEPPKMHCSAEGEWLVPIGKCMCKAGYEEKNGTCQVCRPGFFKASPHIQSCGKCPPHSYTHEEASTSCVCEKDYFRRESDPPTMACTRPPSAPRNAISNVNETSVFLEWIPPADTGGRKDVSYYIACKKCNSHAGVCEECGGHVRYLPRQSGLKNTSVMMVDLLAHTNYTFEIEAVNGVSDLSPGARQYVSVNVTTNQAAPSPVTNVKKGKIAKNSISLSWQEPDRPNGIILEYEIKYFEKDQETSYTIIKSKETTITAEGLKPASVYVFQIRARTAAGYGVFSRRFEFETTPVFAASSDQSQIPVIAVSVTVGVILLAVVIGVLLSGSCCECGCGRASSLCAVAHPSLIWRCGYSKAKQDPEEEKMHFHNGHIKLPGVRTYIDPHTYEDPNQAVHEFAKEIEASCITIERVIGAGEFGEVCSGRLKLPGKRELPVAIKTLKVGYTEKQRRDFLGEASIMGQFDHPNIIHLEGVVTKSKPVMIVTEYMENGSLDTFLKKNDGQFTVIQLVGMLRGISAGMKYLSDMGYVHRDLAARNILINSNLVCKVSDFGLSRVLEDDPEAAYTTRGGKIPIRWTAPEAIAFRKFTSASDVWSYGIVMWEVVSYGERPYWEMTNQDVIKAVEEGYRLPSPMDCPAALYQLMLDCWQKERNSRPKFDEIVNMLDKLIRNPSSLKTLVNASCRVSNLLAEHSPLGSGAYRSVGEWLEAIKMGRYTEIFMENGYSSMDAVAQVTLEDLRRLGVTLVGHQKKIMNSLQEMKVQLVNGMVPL

[26] = molecular target: Ephrin type-B receptor 1 (Homo sapiens) (UniProt P54762); assay: EPHB1 Kinase activity screen
Chain of Ephrin type-B receptor 1 (Homo sapiens) (P54762 whole entry): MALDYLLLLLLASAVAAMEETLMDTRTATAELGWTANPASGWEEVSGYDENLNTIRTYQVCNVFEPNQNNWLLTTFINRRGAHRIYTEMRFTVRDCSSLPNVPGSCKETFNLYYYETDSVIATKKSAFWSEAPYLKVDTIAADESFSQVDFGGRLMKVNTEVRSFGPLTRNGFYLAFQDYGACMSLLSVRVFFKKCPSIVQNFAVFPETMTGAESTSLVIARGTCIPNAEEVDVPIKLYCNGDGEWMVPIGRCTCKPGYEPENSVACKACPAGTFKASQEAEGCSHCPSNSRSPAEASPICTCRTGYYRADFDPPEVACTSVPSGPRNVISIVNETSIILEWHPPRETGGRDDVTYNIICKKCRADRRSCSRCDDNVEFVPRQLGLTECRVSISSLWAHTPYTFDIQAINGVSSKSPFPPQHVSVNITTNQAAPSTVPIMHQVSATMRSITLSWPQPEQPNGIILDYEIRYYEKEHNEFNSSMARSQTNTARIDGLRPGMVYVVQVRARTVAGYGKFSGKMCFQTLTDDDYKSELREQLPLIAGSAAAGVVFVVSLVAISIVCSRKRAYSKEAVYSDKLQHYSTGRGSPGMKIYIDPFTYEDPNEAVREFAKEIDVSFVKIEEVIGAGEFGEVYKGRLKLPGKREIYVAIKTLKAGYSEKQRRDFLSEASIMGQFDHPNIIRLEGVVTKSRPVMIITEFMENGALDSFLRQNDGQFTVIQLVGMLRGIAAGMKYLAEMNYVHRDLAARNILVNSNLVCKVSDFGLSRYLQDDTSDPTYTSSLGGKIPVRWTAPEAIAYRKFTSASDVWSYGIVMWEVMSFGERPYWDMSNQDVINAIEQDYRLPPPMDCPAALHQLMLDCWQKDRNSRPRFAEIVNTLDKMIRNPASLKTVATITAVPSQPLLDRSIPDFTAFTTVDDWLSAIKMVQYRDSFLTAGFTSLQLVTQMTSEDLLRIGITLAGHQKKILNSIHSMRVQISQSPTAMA

[27] = molecular target: Serine/threonine-protein kinase mTOR (Homo sapiens) (UniProt P42345); assay: FRAP1 (mTOR) Kinase activity screen
[28] = molecular target: Homeodomain-interacting protein kinase 1 (Homo sapiens) (UniProt Q86Z02); assay: HIPK1 (Myak) Kinase activity screen
[29] = molecular target: Homeodomain-interacting protein kinase 2 (Homo sapiens) (UniProt Q9H2X6); assay: HIPK2 Kinase activity screen
[30] = molecular target: Tyrosine-protein kinase JAK1 (Homo sapiens) (UniProt P23458); assay: JAK1 Kinase activity screen; details: Compound concentration 0.1 uM
[31] = molecular target: Mast/stem cell growth factor receptor Kit (Homo sapiens) (UniProt P10721); assay: KIT Kinase activity screen
[32] = molecular target: Dual specificity mitogen-activated protein kinase kinase 2 (Homo sapiens) (UniProt P36507); assay: MAP2K2 (MEK2) Kinase activity screen
Chain of Dual specificity mitogen-activated protein kinase kinase 2 (Homo sapiens) (P36507 whole entry): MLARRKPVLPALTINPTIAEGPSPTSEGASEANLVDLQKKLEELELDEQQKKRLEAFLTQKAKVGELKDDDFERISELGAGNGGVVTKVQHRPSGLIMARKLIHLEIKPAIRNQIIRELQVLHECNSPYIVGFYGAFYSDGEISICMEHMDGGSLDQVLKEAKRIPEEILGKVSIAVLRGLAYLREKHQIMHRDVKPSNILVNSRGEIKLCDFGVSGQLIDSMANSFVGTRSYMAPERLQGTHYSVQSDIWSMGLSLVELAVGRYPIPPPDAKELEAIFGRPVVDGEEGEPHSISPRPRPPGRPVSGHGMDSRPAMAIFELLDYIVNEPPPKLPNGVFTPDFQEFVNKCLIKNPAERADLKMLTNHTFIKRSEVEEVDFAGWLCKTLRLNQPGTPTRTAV

[33] = molecular target: Mitogen-activated protein kinase 11 (Homo sapiens) (UniProt Q15759); assay: MAPK11 (p38 beta) Kinase activity screen
Chain of Mitogen-activated protein kinase 11 (Homo sapiens) (Q15759 whole entry): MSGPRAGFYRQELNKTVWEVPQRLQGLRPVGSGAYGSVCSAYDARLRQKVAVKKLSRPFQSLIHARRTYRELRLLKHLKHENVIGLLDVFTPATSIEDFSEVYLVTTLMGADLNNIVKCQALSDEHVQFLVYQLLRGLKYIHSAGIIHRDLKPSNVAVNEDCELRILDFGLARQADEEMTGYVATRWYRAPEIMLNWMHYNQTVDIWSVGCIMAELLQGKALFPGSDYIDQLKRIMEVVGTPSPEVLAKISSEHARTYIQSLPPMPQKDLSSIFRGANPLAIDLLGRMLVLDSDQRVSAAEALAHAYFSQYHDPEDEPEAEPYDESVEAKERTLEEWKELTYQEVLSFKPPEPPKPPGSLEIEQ

[34] = molecular target: Mitogen-activated protein kinase 3 (Homo sapiens) (UniProt P27361); assay: MAPK3 (ERK1) Kinase activity screen
[35] = molecular target: Mitogen-activated protein kinase 8 (Homo sapiens) (UniProt P45983); assay: MAPK8 (JNK1) Kinase activity screen
[36] = molecular target: Mitogen-activated protein kinase 9 (Homo sapiens) (UniProt P45984); assay: MAPK9 (JNK2) Kinase activity screen
[37] = molecular target: Hepatocyte growth factor receptor (Homo sapiens) (UniProt P08581); assay: MET (cMet) Kinase activity screen; details: Compound concentration 1.0 uM
[38] = molecular target: Ribosomal protein S6 kinase beta-1 (Homo sapiens) (UniProt P23443); assay: RPS6KB1 (p70S6K) Kinase activity screen
[39] = molecular target: Proto-oncogene tyrosine-protein kinase Src (Homo sapiens) (UniProt P12931); assay: SRC Kinase activity screen
[40] = molecular target: CDK7/Cyclin H/MNAT1 (Homo sapiens) (UniProt P51946+P50613+P51948); assay: CDK7/cyclin H/MNAT1 Kinase activity screen; type: protein-complex assay
[41] = molecular target: Death-associated protein kinase 1 (Homo sapiens) (UniProt P53355); assay: DAPK1 Kinase activity screen
Chain of Death-associated protein kinase 1 (Homo sapiens) (P53355 whole entry, looked up): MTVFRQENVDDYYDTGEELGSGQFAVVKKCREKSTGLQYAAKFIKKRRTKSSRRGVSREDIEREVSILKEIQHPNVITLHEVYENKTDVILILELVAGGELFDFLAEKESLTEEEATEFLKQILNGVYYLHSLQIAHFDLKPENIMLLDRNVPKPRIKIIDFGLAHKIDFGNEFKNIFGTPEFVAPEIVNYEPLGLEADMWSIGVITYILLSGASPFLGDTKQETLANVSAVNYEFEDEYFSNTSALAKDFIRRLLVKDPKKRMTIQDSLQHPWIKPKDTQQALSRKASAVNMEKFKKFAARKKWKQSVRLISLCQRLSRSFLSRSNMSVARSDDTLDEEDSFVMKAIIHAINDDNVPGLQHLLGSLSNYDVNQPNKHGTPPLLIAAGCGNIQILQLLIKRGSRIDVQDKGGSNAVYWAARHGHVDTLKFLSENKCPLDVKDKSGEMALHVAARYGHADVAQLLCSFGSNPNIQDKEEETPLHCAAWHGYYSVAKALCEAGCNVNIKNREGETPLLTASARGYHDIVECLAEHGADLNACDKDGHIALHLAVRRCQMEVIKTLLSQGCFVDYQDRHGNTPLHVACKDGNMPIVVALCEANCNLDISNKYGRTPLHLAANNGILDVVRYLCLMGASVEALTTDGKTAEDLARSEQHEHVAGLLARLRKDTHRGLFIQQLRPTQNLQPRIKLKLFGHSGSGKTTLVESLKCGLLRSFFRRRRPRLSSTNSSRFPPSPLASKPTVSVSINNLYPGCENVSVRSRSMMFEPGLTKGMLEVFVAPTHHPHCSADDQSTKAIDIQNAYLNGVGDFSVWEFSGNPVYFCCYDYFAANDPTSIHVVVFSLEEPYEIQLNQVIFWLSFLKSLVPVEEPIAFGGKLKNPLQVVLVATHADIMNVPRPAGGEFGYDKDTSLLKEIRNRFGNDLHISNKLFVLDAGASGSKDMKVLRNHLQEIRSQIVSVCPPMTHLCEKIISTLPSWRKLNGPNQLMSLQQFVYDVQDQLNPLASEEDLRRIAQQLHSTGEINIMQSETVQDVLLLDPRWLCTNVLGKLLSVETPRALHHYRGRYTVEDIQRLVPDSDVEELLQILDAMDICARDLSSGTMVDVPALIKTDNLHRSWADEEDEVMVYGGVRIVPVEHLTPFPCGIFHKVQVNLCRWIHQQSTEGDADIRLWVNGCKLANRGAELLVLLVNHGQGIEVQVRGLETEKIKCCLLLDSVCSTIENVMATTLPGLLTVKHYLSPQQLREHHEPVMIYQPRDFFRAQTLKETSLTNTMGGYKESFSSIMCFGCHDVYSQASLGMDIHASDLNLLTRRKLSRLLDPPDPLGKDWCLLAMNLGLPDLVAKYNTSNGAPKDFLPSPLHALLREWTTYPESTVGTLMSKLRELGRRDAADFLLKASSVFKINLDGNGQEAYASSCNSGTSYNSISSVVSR

[42] = Compound concentration 0.123 uM

CN1CCN(C(=O)C(C)(C)c2ccc(C(=O)Nc3cn4cc(-c5cc(C(C)(C)C)cc(C(C)(C)C)c5)ccc4n3)cc2)CC1 [T3-CLK-N]
Ki [1]: 2.56 µM | Ki [2]: 2.17 µM | Ki ([3]; read-out: Ki): 3.56 µM | Ki ([3]; read-out: pKi (converted)): 3.47 µM | Ki ([4]; read-out: Ki): 1.07 µM | Ki ([4]; read-out: pKi (converted)): 1.05 µM | Ki ([5]; read-out: Ki): 2.49 µM | Ki ([5]; read-out: pKi (converted)): 2.24 µM | Ki ([6]; read-out: Ki): 0.99 µM | Ki ([6]; read-out: pKi (converted)): 0.977 µM | Ki ([7]; read-out: Ki): 1.39 µM | Ki ([7]; read-out: pKi (converted)): 1.35 µM | Ki [8]: 2.66 µM | Ki ([9]; read-out: Ki): 2.09 µM | Ki ([9]; read-out: pKi (converted)): 1.95 µM | Ki [10]: > 10 µM | pKi [10]: < 5 | Ki [11]: 1.45 µM | IC50 [12]: > 10 µM (not active) | inhibition [13]: 51.3% | inhibition [14]: 78.1%

CN1CCN(C(=O)C(C)(C)c2ccc(C(=O)Nc3cn4cc(-c5ccncc5)ccc4n3)cc2)CC1 [T3-CLK]
inhibition [15, 42]: 92.1% | inhibition ([15]; Compound concentration 1.11 uM): 100% | inhibition [16, 42]: 74.2% | inhibition ([16]; Compound concentration 1.11 uM): 97.5% | inhibition [17, 42]: 62.7% | inhibition ([17]; Compound concentration 1.11 uM): 94.1% | inhibition [18, 42]: -8.38% | inhibition ([18]; Compound concentration 1.11 uM): -2.87% | inhibition [19, 42]: 1.82% | inhibition ([19]; Compound concentration 1.11 uM): 5.16% | inhibition [20]: -8.24% | inhibition ([21]; Compound concentration 0.1 uM): -2% | inhibition ([21]; Compound concentration 1.0 uM): 0.493% | inhibition ([22]; Compound concentration 0.1 uM): 6.77% | inhibition ([22]; Compound concentration 1.0 uM): 16.1% | inhibition ([23]; Compound concentration 0.1 uM): 9.74% | inhibition ([23]; Compound concentration 1.0 uM): 18.4% | inhibition ([24]; Compound concentration 0.1 uM): 21.9% | inhibition ([24]; Compound concentration 1.0 uM): 24.2% | inhibition ([25]; Compound concentration 0.1 uM): -5.79% | inhibition ([25]; Compound concentration 1.0 uM): -4.96% | inhibition ([26]; Compound concentration 0.1 uM): 4.83% | inhibition ([26]; Compound concentration 1.0 uM): 4.09% | inhibition ([27]; Compound concentration 0.1 uM): -5.58% | inhibition ([27]; Compound concentration 1.0 uM): -8.53% | inhibition ([28]; Compound concentration 0.1 uM): -0.71% | inhibition ([28]; Compound concentration 1.0 uM): 2.69% | inhibition ([29]; Compound concentration 0.1 uM): -3.6% | inhibition ([29]; Compound concentration 1.0 uM): -1.82% | inhibition [30]: 10.9% | inhibition ([31]; Compound concentration 0.1 uM): 11% | inhibition ([31]; Compound concentration 1.0 uM): 37.5% | inhibition ([32]; Compound concentration 0.1 uM): 16.9% | inhibition ([32]; Compound concentration 1.0 uM): 13.8% | inhibition ([33]; Compound concentration 0.1 uM): 0.672% | inhibition ([33]; Compound concentration 1.0 uM): 0.93% | inhibition ([34]; Compound concentration 0.1 uM): 5.63% | inhibition ([34]; Compound concentration 1.0 uM): 6.05% | inhibition ([35]; Compound concentration 0.1 uM): 5.45% | inhibition ([35]; Compound concentration 1.0 uM): 2.56% | inhibition ([36]; Compound concentration 0.1 uM): 3.18% | inhibition ([36]; Compound concentration 1.0 uM): -1.48% | inhibition [37]: -7.39% | inhibition ([38]; Compound concentration 0.1 uM): 2.21% | inhibition ([38]; Compound concentration 1.0 uM): 0.698% | inhibition ([39]; Compound concentration 0.1 uM): 13.2% | inhibition ([39]; Compound concentration 1.0 uM): 46.7% | inhibition ([40]; Compound concentration 0.1 uM): 0.551% | inhibition ([40]; Compound concentration 1.0 uM): -3.41% | inhibition ([41]; Compound concentration 0.1 uM): -4.42% | inhibition ([41]; Compound concentration 1.0 uM): -6.43%
